This is an account of results in patent US7416848B2, “DNA encoding SNORF25 receptor” (H. Lundbeck A/S, priority 1999, dated 2008).

Assay [1] addresses T1, SNORF25 (Homo sapiens, UniProt Q8TDV5).
T1 sequence (Q8TDV5 1-335): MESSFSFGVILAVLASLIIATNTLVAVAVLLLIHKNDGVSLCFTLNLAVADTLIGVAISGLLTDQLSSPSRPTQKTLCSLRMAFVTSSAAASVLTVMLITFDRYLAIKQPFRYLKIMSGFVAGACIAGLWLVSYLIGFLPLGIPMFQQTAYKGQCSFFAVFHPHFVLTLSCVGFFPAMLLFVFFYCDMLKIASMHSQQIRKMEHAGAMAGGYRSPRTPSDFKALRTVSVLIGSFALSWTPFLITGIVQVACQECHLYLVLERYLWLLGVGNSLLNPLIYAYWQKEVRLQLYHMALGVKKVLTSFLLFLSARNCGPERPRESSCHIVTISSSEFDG
Kind of assay: CFTR Cl- currents in Xenopus oocytes co-injected with SNORF25 and CFTR mRNA. Format: cell-based. Further details: from linearized plasmids or PCR products containing the complete coding region of the genes; expressed in transfected cells; host or cells: Xenopus laevis oocytes injected with SNORF25 mRNA (with or without CFTR mRNA). As to the method:
(§1) Oocytes are harvested from Xenopus laevis and injected with mRNA transcripts as previously described (Quick and Lester, 1994; Smith et al., 1997). The test receptor of this invention and Gα subunit RNA transcripts are synthesized using the T7 polymerase (“Message Machine,” Ambion) from linearized plasmids or PCR products containing the complete coding region of the genes. Oocytes are injected with 10 ng synthetic receptor RNA and incubated for 3–8 days at 17 degrees. Three to eight hours prior to recording, oocytes are injected with 500 pg promiscuous Gα subunits mRNA in order to observe coupling to Ca^++ activated Cl^− currents.
Each of the compounds was tested at 10 μM. Oocytes expressing SNORF25 generated inward Cl^− currents, consistent with CFTR activation, in response to all four of the ligands.
The activity of SNORF25 was therefore tested in oocytes co-injected with mRNA encoding SNORF25 and mRNA encoding CFTR. In 17 out of 39 of these oocytes an inward Cl^− current (105±20 nA) was measured in response to the application of 10 μM all-trans-retinoic acid (See FIGS. 9A–9C and 10).

The target in assay [2] is T1, SNORF25. Nature of the assay: Cl- currents via phospholipase C pathway in SNORF25 oocytes. Format: cell-based. Further details: from linearized plasmids or PCR products containing the complete coding region of the genes; expressed in transfected cells; host or cells: Xenopus laevis oocytes injected with SNORF25 mRNA (with or without CFTR mRNA). As to the method: as §1
Heterologous expression of GPCRs in Xenopus oocytes has been widely used to determine the identity of signaling pathways activated by agonist stimulation (Gundersen et al., 1983; Takahashi et al., 1987). Activation of the phospholipase C (PLC) pathway is assayed by applying a test compound in ND96 solution to oocytes previously injected with mRNA for the SNORF25 receptor and observing inward currents at a holding potential of approximately −80 mV. The appearance of currents that reverse at −25 mV and display other properties of the Ca^++-activated Cl^− channel is indicative of receptor-activation of PLC and release of IP3 and intracellular Ca^++.

The structures appear in SMILES notation.

Turning to `CC1=C(/C=C/C(C)=C/C=C/C(C)=C/C(=O)O)C(C)(C)CCC1` [ATRA, all-trans-retinoic acid], the “inward Cl- current amplitude” value at SNORF25 [1] (10 μM, oocytes with SNORF25 and CFTR mRNA) amounted to 105±20 nA. Besides, the “delay for activation of CFTR” value at SNORF25 [1] (SNORF25-expressing oocytes) is around 10 s. Besides, the “responses in oocytes expressing chimeric G-proteins” value at SNORF25 [2] (chimeric G-proteins coupling Gi and Go GPCRs to phospholipase C pathway) is “not evoked”. For the same molecule, the “Cl- currents in oocytes lacking CFTR” value on SNORF25 [2] (oocytes lacking CFTR, Gq-mediated phospholipase C pathway) is recorded as “did not stimulate Cl^− currents”.
